Measured values taken from US20030171345A1 (priority 2001, published 2003).
Read-outs that look alike come from different tables or passages of the source.

Experiments:
hERβ [1] = settings: cited from earlier work
[2] = system: estrogen receptor preparations from rat prostates; assay: Competitive 3H-estradiol binding, rat prostate cytosol estrogen receptor; settings: for Rat prost. ER(RBA): 3H-estradiol as ligand, rat prostate cytosol, estradiol = 100
hERβ [3] = assay: Relative binding affinity to hERβ (Kuiper et al.); set-up: species or system human; settings: quotient of RBA to ERβ and ERα
Description: In this case, it is assumed that ERβ predominates in the rat prostates over ERα, and ERα predominates in rat uteri over ERβ.

[4] = system: estrogen receptor preparations from rat uteri; assay: Competitive 3H-estradiol binding, rat uterus cytosol estrogen receptor; settings: 3H-estradiol as ligand, estradiol = 100
[5] = relative binding affinity, estradiol = 100

Q: What does the source list for `C[C@]12CCC(O)CC1=CC[C@@H]1[C@@H]2CC[C@]2(C)C(O)CC[C@@H]12` (stereo partly drawn) [5-Androstene-diol]?
A: hERβ RBA (hERβ [1]): 17; Rat prost. ER(RBA) [2]: 5; prost. ER/uterus ER ([2]; ratio of the binding to prostate and uterus receptors): 50; ERβ/ERα (hERβ [3]): 3; Rat uterus ER(RBA) [4]: 0.1

Q: Which “hERβ RBA” value (hERβ [1]; [5]) does the source give for `C[C@]12CC[C@@H]3c4ccc(O)cc4CC[C@H]3[C@@H]1C[C@@H](O)[C@@H]2O` [Estriol] here?
A: 21

Q: With Estradiol as the compound, how does the “hERβ RBA” value (hERβ [1]; [5]) read?
A: 100

Q: And the “Rat prost. ER(RBA)” value [2]?
A: 100

Q: And the “Rat uterus ER(RBA)” value [4]?
A: 100
